Source: publication PMC12300041, “Tricyclic Isatin Derivatives as Anti-Inflammatory Compounds with High Kinase Binding Affinity” (Molecules, 2025)

How the values were obtained:
Assay in all cases: KINOMEscan
Format in all cases: binding
EGFR (T790M) = target: T1, EGFR (T790M) (Homo sapiens, UniProt P00533, T790M)
T1 construct: purchased Eurofins DiscoverX KINOMEscan
Summary of the method: (§1)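 Active-site competition format. Unbound kinase fraction measured by affinity-ligand capture plus qPCR after 1 h at RT. Kd from 12-point half-log titration, maximum 33 μM.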

CSNK1G1 = target: T2, CSNK1G1 (Homo sapiens, UniProt Q9HCP0)
T2 construct: purchased Eurofins DiscoverX KINOMEscan
Summary of the method: (§2)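 Competition binding run for 1 h at room temperature; kinase left unbound by compound was captured on an immobilized affinity ligand and quantified by qPCR. Kd was taken from a 12-point half-log dilution series with a 33 μM top concentration.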

MEK2 = target: T3, MEK2 (Homo sapiens, UniProt P36507)
T3 construct: purchased Eurofins DiscoverX KINOMEscan
Summary of the method: as §1

GRK1 = target: T4, GRK1 (Homo sapiens, UniProt Q15835)
T4 construct: purchased Eurofins DiscoverX KINOMEscan
Summary of the method: as §2

TRKA = target: T5, TRKA (Homo sapiens, UniProt P04629)
T5 construct: purchased Eurofins DiscoverX KINOMEscan
Summary of the method: as §1

PRKR = target: T6, PRKR (Homo sapiens, UniProt P19525)
T6 construct: purchased Eurofins DiscoverX KINOMEscan
Summary of the method: as §2

CDC2L1 = target: T7, CDC2L1 (Homo sapiens, UniProt P21127)
T7 construct: purchased Eurofins DiscoverX KINOMEscan
Summary of the method: as §2

CAMK1D = target: T8, CAMK1D (Homo sapiens, UniProt Q8IU85)
T8 construct: purchased Eurofins DiscoverX KINOMEscan
Summary of the method: as §2

CSNK1G3 = target: T9, CSNK1G3 (Homo sapiens, UniProt Q9Y6M4)
T9 construct: purchased Eurofins DiscoverX KINOMEscan
Summary of the method: as §2

TIE1 = target: T10, TIE1 (Homo sapiens, UniProt P35590)
T10 construct: purchased Eurofins DiscoverX KINOMEscan
Summary of the method: as §2

EPHA7 = target: T11, EPHA7 (Homo sapiens, UniProt Q15375)
T11 construct: purchased Eurofins DiscoverX KINOMEscan
Summary of the method: as §2

FLT4 = target: T12, FLT4 (Homo sapiens, UniProt P35916)
T12 construct: purchased Eurofins DiscoverX KINOMEscan
Summary of the method: as §2

p38-α = target: T13, p38-α (Homo sapiens, UniProt Q16539)
T13 construct: purchased Eurofins DiscoverX KINOMEscan
Summary of the method: as §2

ABL1 (T315I)-P = target: T14, ABL1 (T315I)-P (Homo sapiens, UniProt P00519, T315I)
T14 construct: purchased Eurofins DiscoverX KINOMEscan
Summary of the method: as §2

ZAK = target: T15, ZAK (Homo sapiens, UniProt Q9NYL2)
T15 construct: purchased Eurofins DiscoverX KINOMEscan
Summary of the method: as §2

PAK2 = target: T16, PAK2 (Homo sapiens, UniProt Q13177)
T16 construct: purchased Eurofins DiscoverX KINOMEscan
Summary of the method: as §1

PRKCE = target: T17, PRKCE (Homo sapiens, UniProt Q02156)
T17 construct: purchased Eurofins DiscoverX KINOMEscan
Summary of the method: as §1

SIK = target: T18, SIK (Homo sapiens, UniProt P57059)
T18 construct: purchased Eurofins DiscoverX KINOMEscan
Summary of the method: as §1

PRKD3 = target: T19, PRKD3 (Homo sapiens, UniProt O94806)
T19 construct: purchased Eurofins DiscoverX KINOMEscan
Summary of the method: as §2

[1] = target: T20, RSK1 (Kin. Dom.2-C-term.) (Homo sapiens, UniProt Q15418)
T20 construct: RSK1 (Kin. Dom.2-C-term.); purchased Eurofins DiscoverX KINOMEscan
Summary of the method: as §2

ULK3 = target: T21, ULK3 (Homo sapiens, UniProt Q6PHR2)
T21 construct: purchased Eurofins DiscoverX KINOMEscan
Summary of the method: as §1

PDPK1 = target: T22, PDPK1 (Homo sapiens, UniProt O15530)
T22 construct: purchased Eurofins DiscoverX KINOMEscan
Summary of the method: as §2

ERN1 = target: T23, ERN1 (Homo sapiens, UniProt O75460)
T23 construct: purchased Eurofins DiscoverX KINOMEscan
Summary of the method: as §2

CAMK1 = target: T24, CAMK1 (Homo sapiens, UniProt Q14012)
T24 construct: purchased Eurofins DiscoverX KINOMEscan
Summary of the method: as §2

ALK = target: T25, ALK (Homo sapiens, UniProt Q9UM73)
T25 construct: purchased Eurofins DiscoverX KINOMEscan
Summary of the method: as §2

OSR1 = target: T26, OSR1 (Homo sapiens, UniProt O95747)
T26 construct: purchased Eurofins DiscoverX KINOMEscan
Summary of the method: as §2

ACVRL1 = target: T27, ACVRL1 (Homo sapiens, UniProt P37023)
T27 construct: purchased Eurofins DiscoverX KINOMEscan
Summary of the method: as §1

FLT3 (D835Y) = target: T28, FLT3 (D835Y) (Homo sapiens, UniProt P36888, D835Y)
T28 construct: purchased Eurofins DiscoverX KINOMEscan
Summary of the method: as §2

FLT3 (N841I) = target: T29, FLT3 (N841I) (Homo sapiens, UniProt P36888, N841I)
T29 construct: purchased Eurofins DiscoverX KINOMEscan
Summary of the method: as §2

CSF1R-autoinhibited = target: T30, CSF1R-autoinhibited (Homo sapiens, UniProt P07333)
T30 construct: purchased Eurofins DiscoverX KINOMEscan
Summary of the method: as §2

[2] = target: T31, RSK4 (Kin. Dom.1-N-term.) (Homo sapiens, UniProt Q9UK32)
T31 construct: RSK4 (Kin. Dom.1-N-term.); purchased Eurofins DiscoverX KINOMEscan
Summary of the method: as §1

LCK = target: T32, LCK (Homo sapiens, UniProt P06239)
T32 construct: purchased Eurofins DiscoverX KINOMEscan
Summary of the method: as §1

LRRK2 = target: T33, LRRK2 (Homo sapiens, UniProt Q5S007)
T33 construct: purchased Eurofins DiscoverX KINOMEscan
Summary of the method: as §1

MEK6 = target: T34, MEK6 (Homo sapiens, UniProt P52564)
T34 construct: purchased Eurofins DiscoverX KINOMEscan
Summary of the method: as §1

JAK2 (JH1domain-cat.) = target: T35, JAK2 (JH1domain-cat.) (Homo sapiens, UniProt O60674)
T35 construct: JAK2 (JH1domain-cat.); purchased Eurofins DiscoverX KINOMEscan
Summary of the method: as §1

FGFR1 = target: T36, FGFR1 (Homo sapiens, UniProt P11362)
T36 construct: purchased Eurofins DiscoverX KINOMEscan
Summary of the method: as §2

QSK = target: T37, QSK (Homo sapiens, UniProt Q9Y2K2)
T37 construct: purchased Eurofins DiscoverX KINOMEscan
Summary of the method: as §2

TNK2 = target: T38, TNK2 (Homo sapiens, UniProt Q07912)
T38 construct: purchased Eurofins DiscoverX KINOMEscan
Summary of the method: as §2

T33 sequence (Q5S007 whole entry): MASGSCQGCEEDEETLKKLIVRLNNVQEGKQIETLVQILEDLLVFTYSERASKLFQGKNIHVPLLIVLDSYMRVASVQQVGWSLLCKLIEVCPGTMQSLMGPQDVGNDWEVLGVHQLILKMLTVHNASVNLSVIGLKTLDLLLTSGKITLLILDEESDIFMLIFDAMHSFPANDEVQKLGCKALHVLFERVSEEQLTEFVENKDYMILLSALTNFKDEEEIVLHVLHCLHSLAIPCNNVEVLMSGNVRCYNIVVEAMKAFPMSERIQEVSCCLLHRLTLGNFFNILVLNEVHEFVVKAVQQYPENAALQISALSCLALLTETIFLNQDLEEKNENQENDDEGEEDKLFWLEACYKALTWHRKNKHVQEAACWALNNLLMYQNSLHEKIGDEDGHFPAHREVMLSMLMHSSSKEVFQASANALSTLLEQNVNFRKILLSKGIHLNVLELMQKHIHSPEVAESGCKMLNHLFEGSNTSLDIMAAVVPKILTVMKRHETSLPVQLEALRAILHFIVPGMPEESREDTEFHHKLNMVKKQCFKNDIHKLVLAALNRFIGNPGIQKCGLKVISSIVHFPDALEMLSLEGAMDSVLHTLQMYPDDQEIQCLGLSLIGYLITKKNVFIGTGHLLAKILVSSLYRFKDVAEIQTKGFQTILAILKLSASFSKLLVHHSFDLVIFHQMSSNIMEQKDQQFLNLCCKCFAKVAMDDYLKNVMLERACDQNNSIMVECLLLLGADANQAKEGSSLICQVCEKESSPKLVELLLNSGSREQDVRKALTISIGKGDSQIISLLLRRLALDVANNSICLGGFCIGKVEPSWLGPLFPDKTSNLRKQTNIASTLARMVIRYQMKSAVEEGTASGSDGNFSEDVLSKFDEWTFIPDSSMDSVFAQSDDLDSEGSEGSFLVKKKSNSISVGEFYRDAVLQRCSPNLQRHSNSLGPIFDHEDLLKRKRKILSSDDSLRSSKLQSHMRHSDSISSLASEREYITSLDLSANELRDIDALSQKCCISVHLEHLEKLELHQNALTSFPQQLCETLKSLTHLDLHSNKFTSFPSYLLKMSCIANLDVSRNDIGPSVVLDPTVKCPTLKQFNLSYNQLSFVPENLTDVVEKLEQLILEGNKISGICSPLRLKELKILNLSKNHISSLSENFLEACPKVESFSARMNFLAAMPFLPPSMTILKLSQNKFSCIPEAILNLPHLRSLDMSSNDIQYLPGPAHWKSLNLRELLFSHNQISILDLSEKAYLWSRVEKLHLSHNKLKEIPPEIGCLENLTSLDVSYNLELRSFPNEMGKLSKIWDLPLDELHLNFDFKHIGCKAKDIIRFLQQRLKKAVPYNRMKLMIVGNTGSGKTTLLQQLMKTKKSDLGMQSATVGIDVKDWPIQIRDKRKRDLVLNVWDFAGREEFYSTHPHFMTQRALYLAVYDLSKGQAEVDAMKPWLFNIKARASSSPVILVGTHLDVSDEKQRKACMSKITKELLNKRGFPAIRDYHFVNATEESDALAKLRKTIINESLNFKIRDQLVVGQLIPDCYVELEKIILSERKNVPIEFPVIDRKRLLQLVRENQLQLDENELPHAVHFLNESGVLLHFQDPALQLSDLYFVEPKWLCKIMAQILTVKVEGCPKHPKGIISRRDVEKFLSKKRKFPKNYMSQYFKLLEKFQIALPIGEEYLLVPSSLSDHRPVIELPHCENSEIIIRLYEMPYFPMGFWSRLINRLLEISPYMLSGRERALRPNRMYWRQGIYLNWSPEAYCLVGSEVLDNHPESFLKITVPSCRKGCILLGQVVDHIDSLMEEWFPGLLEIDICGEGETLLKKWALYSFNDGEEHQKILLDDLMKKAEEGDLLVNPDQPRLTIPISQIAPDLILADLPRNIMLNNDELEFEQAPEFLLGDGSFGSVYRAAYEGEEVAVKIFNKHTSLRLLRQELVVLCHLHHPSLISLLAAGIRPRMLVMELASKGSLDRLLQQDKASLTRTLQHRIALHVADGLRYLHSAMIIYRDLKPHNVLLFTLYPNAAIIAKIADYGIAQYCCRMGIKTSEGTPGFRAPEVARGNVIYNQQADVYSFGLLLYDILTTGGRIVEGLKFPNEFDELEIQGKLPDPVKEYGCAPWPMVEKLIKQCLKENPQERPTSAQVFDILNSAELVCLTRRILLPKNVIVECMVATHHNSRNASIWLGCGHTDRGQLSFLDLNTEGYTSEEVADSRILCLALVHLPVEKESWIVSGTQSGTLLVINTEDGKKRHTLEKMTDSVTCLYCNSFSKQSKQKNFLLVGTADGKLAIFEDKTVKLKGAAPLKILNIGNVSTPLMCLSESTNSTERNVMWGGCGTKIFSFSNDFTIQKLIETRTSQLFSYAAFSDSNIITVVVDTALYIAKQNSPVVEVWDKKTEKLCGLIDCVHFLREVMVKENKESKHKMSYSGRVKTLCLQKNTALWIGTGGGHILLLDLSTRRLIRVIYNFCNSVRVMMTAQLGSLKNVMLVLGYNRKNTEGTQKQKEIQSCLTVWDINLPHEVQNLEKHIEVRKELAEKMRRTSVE
T34 sequence (P52564 whole entry): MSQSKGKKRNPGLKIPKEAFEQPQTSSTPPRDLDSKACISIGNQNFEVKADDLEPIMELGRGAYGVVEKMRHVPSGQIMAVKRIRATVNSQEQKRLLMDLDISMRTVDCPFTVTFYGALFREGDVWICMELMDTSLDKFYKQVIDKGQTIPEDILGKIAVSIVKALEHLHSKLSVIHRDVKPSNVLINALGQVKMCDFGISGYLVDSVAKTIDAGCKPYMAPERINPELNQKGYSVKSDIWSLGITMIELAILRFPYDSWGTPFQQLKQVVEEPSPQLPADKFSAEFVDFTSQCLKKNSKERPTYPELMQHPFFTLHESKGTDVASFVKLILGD
T3 sequence (P36507 whole entry): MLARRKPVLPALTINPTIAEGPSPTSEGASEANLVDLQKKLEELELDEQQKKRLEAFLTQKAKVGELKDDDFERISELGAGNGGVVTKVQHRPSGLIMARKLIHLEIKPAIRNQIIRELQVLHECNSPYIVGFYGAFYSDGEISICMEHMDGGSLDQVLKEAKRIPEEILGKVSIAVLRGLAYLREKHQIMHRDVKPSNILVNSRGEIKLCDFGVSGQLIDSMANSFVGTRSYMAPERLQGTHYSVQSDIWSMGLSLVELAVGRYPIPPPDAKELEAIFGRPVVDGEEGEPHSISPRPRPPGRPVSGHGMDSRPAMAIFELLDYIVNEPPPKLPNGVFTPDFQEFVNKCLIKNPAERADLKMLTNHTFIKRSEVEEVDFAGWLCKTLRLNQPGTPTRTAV
T15 sequence (Q9NYL2 whole entry): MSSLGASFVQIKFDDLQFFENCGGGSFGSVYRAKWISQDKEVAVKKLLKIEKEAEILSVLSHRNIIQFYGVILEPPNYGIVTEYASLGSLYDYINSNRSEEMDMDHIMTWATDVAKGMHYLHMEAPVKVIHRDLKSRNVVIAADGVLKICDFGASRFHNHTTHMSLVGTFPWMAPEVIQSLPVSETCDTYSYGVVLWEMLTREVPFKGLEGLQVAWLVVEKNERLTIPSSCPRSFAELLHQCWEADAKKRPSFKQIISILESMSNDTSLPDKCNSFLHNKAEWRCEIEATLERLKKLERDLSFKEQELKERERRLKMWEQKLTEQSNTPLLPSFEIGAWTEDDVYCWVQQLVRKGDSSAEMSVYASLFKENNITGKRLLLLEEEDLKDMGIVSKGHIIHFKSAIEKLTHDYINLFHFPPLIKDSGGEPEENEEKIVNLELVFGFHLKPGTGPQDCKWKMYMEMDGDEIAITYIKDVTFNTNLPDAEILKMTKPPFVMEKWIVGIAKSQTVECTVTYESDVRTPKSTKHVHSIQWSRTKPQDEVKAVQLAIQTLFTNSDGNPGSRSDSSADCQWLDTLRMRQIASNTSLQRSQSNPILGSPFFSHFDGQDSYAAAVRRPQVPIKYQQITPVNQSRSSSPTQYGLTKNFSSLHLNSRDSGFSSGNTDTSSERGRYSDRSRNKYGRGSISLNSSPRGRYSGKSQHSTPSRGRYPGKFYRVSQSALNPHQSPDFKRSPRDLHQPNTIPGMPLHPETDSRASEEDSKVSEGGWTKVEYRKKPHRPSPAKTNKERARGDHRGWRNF
T24 sequence (Q14012 whole entry): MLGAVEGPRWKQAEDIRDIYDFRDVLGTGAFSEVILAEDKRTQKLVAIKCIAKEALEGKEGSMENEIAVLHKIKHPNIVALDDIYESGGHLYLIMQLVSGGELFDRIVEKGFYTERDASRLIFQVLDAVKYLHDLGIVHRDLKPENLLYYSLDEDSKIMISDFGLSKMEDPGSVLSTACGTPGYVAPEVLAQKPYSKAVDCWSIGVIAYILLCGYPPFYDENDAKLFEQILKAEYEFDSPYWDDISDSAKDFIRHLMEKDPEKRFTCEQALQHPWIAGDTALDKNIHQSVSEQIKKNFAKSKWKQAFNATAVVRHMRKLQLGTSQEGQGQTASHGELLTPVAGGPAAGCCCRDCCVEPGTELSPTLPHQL
T6 sequence (P19525 whole entry): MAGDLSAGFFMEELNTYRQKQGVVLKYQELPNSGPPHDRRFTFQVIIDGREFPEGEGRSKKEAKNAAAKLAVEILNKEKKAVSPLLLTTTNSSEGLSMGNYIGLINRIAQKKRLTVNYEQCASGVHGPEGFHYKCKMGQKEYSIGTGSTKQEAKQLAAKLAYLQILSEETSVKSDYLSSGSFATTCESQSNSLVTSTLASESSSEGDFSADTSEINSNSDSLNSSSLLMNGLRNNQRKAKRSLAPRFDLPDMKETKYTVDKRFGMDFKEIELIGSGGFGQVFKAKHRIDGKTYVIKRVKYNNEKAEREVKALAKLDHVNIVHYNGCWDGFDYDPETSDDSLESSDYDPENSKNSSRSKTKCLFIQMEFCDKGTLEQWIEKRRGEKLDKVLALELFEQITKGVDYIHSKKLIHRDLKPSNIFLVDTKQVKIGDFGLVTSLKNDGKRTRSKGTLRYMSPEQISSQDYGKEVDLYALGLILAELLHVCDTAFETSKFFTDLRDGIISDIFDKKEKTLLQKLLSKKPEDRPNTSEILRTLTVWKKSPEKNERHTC

Structure (SMILES): O=C1Nc2c(cc([N+](=O)[O-])c3c2CCCC3)C1=NO [Compound 5d, 3-(Hydroxyimino)-5-nitro-1,3,6,7,8,9-hexahydro-2H-benzo[g]indol-2-one]
- inhibition at 10 µM (EGFR (T790M)): 0%
- inhibition at 10 µM (CSNK1G1): 84%
- inhibition at 10 µM (MEK2): 87%
- inhibition at 10 µM (GRK1): 67%
- inhibition at 10 µM (TRKA): 0%
- inhibition at 10 µM (PRKR): 6%
- inhibition at 10 µM (CDC2L1): 0%
- inhibition at 10 µM (CAMK1D): 65%
- inhibition at 10 µM (CSNK1G3): 83%
- inhibition at 10 µM (TIE1): 12%
- inhibition at 10 µM (EPHA7): 9%
- inhibition at 10 µM (FLT4): 8%
- inhibition at 10 µM (p38-α): 0%
- inhibition at 10 µM (ABL1 (T315I)-P): 17%
- inhibition at 10 µM (ZAK): 14%
- inhibition at 10 µM (PAK2): 41%
- inhibition at 10 µM (PRKCE): 61%
- inhibition at 10 µM (SIK): 9%
- inhibition at 10 µM (PRKD3): 77%
- inhibition at 10 µM [1]: 60%
- inhibition at 10 µM (ULK3): 55%
- inhibition at 10 µM (PDPK1): 8%
- inhibition at 10 µM (ERN1): 29%
- inhibition at 10 µM (CAMK1): 38%
- inhibition at 10 µM (ALK): 46%
- inhibition at 10 µM (OSR1): 25%
- inhibition at 10 µM (ACVRL1): 0%
- inhibition at 10 µM (FLT3 (D835Y)): 54%
- inhibition at 10 µM (FLT3 (N841I)): 0%
- inhibition at 10 µM (CSF1R-autoinhibited): 37%
- inhibition at 10 µM [2]: 77%
- inhibition at 10 µM (LCK): 29%
- inhibition at 10 µM (LRRK2): 96%
- inhibition at 10 µM (MEK6): 3%
- inhibition at 10 µM (JAK2 (JH1domain-cat.)): 42%
- inhibition at 10 µM (FGFR1): 5%
- inhibition at 10 µM (QSK): 14%
- inhibition at 10 µM (TNK2): 2%
